Data from PubChem BioAssay (NCI).
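Five compound concentrations were applied to cells in 96-well plates for 48 hours; endpoints were derived by simple linear interpolation of the resulting dose-response curve. Here, GI50 denotes the concentration required for 50% inhibition of growth. The concentration for full growth arrest is given as TGI.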

How the values were obtained:
Test in all cases: NCI-60 cell line screen, 48 h
[1] = test system: HOP-92 NSCLC
[2] = test system: NCI-H522 lung
[3] = test system: ACHN renal
[4] = test system: OVCAR-5 ovarian
[5] = test system: HL-60(TB) leukemia
[6] = test system: 786-0 renal
[7] = test system: TK-10 renal
[8] = test system: NCI-H226 lung
[9] = test system: HOP-62 NSCLC

Row | Structure (SMILES) | GI50 [1] | TGI [1] | GI50 [2] | TGI [2] | GI50 [3] | TGI [3] | GI50 [4] | TGI [4] | GI50 [5] | TGI [5] | GI50 [6] | TGI [6] | GI50 [7] | TGI [7] | TGI [8] | TGI [9] | GI50 [9] | GI50 [8]
1 | COc1ccc2c(c1)CCCN2c1c2ccccc2nc2ccccc12 | 0.683 µM | 6.46 µM | 0.384 µM | 16.2 µM | 0.611 µM | > 100 µM | 0.544 µM | > 100 µM | 0.298 µM | 1.09 µM | 0.549 µM | 9.3 µM | 3.38 µM | > 100 µM | – | – | – | –
2 | C[C@@H]1OC(=O)N2CCCC(=C3SCCCS3)C12 (some centres not stated) | – | 84.9 µM | – | > 100 µM | – | > 100 µM | – | > 100 µM | – | – | – | > 100 µM | – | > 100 µM | > 100 µM | – | – | –
3 | O=[N+]([O-])c1ccc(C=NC2CCCCC2)cc1 | – | > 100 µM | – | – | – | > 100 µM | – | > 100 µM | – | > 100 µM | – | > 100 µM | – | > 100 µM | > 100 µM | > 100 µM | – | –
4 | CN(C)CCNC(=O)c1cccc2ccc(-c3ccncc3)nc12 | – | 7.31 µM | – | – | – | – | – | 5.63 µM | – | 7.59 µM | – | 34.2 µM | – | 5.57 µM | – | 5.56 µM | – | –
5 | COC1(OC)CC2OC1C1N=NN(C(=O)OC(C)(C)C)C21 (configuration not stated) | – | > 100 µM | – | – | – | > 100 µM | – | > 100 µM | – | 81.6 µM | – | > 100 µM | – | – | > 100 µM | > 100 µM | – | –
6 | CC(SC(=S)N1CCOCC1)c1cc2oc(=O)n(C)c2cc1Cl (configuration not stated) | – | > 10 µM | – | – | – | > 100 µM | – | > 100 µM | – | > 100 µM | – | > 100 µM | – | > 100 µM | – | > 100 µM | – | –
7 | CCC[CH2][Sn]1([CH2]CCC)[O]C(=O)CN=Cc2c(ccc3ccccc23)[O]1 | 0.171 µM | 0.606 µM | 0.0605 µM | 0.198 µM | 0.319 µM | 1.05 µM | 1.93 µM | 3.35 µM | – | – | 0.487 µM | 1.81 µM | 0.293 µM | 0.743 µM | – | > 100 µM | 3.91 µM | –
8 | O=C(O)C(CS)Nc1c2ccccc2nc2ccccc12 (configuration not stated) | – | > 100 µM | – | > 100 µM | – | > 100 µM | – | > 100 µM | – | > 100 µM | – | > 100 µM | – | > 100 µM | > 100 µM | – | – | –
9 | COc1ccc(NC(=O)CC(=O)N/N=C/c2ccc(N(CCC#N)S(C)(=O)=O)cc2)cc1 | – | – | – | > 100 µM | – | > 100 µM | – | > 100 µM | – | – | – | > 100 µM | – | > 100 µM | > 100 µM | > 100 µM | – | –
10 | CC(C)(C)c1cc(CCC(=O)Nc2ccc(Cl)cc2)nc(NC#N)n1 | – | > 100 µM | – | – | – | > 100 µM | – | > 100 µM | – | > 100 µM | – | > 100 µM | – | > 100 µM | > 100 µM | > 100 µM | – | –
11 | CCCC(=O)OCC1OC(n2cnc3c(=S)nc[nH]c32)C(OC(=O)CCC)C1OC(=O)CCC (configuration not stated) | – | – | 4.62 µM | > 100 µM | 6.15 µM | > 100 µM | 4.76 µM | > 100 µM | 2.6 µM | 9.96 µM | 3.46 µM | > 100 µM | 2.78 µM | > 100 µM | > 100 µM | > 100 µM | 2.84 µM | 5.77 µM
12 | CC/C=C\C[C@H](F)C/C=C1/C(=O)C=C[C@@H]1C/C=C\CCCC(=O)O | – | – | 4.58 µM | 10.9 µM | 4.99 µM | 9.85 µM | 8.18 µM | 21 µM | 3.41 µM | 16.8 µM | 7.24 µM | 13.3 µM | 12.2 µM | 27.4 µM | 21 µM | 15.2 µM | 7.65 µM | 8.8 µM
13 | Nc1nc(N(Cc2ccccc2)c2ccccc2)c2cn[nH]c2n1 | 1.42 µM | > 100 µM | 2.62 µM | > 100 µM | 5 µM | > 100 µM | – | – | 1.57 µM | 6.6 µM | 4.63 µM | > 100 µM | 4.72 µM | > 100 µM | > 100 µM | > 100 µM | 3.47 µM | 6.35 µM
14 | CCOC(=O)/C(=C\c1ccccc1)C(=O)O | – | > 100 µM | – | > 100 µM | – | > 100 µM | – | > 100 µM | – | > 100 µM | – | > 100 µM | – | – | > 100 µM | > 100 µM | – | –
15 | O=C(N/C(=C\c1cccc([N+](=O)[O-])c1)c1nc2ccc([N+](=O)[O-])cc2[nH]1)c1ccccc1 | – | 60.7 µM | – | 52.9 µM | – | > 100 µM | – | > 100 µM | – | – | – | > 100 µM | – | > 100 µM | – | – | – | –
16 | CCOC1Oc2ccc(C)cc2C(=O)/C1=C\Nc1ccc(C(N)=O)cc1 (configuration not stated) | 79.9 µM | > 100 µM | 20.8 µM | 47.3 µM | 14.9 µM | 40.6 µM | 22 µM | 47.1 µM | – | – | 16.3 µM | 30.4 µM | 15.7 µM | 36 µM | 50.7 µM | 33.7 µM | 17.6 µM | 24.3 µM
17 | O=C(O)CCSC(=O)Nc1ccc([N+](=O)[O-])cc1 | – | – | – | – | – | > 100 µM | – | – | – | > 100 µM | – | > 100 µM | – | > 100 µM | – | > 100 µM | – | –
18 | CC[C@@]1(c2ccccc2)C2=C(CC(C)(C)CC2=O)Nc2[nH]ncc21 | > 100 µM | > 100 µM | > 100 µM | > 100 µM | > 100 µM | > 100 µM | > 100 µM | > 100 µM | – | – | > 100 µM | > 100 µM | > 100 µM | > 100 µM | > 100 µM | > 100 µM | > 100 µM | > 100 µM
19 | COc1ccc2nc3c(C(=O)NCCN(C)C)cccc3nc2c1 | – | 24 µM | – | – | – | > 100 µM | – | 81.3 µM | – | > 100 µM | – | > 100 µM | – | 34.3 µM | 38.6 µM | 21.4 µM | – | –
20 | COc1cc(C(=O)CBr)c(OC)cc1C | – | – | – | > 100 µM | – | > 100 µM | – | > 100 µM | – | > 100 µM | – | > 100 µM | – | > 100 µM | > 100 µM | > 100 µM | – | –
21 | O=C(Nc1ccncc1)C(=O)c1cn(S(=O)(=O)c2cccc(F)c2)c2ccccc12 | – | – | 1.3 µM | 15.7 µM | 9.5 µM | > 100 µM | > 100 µM | > 100 µM | 3.36 µM | > 100 µM | 3.64 µM | > 100 µM | 15.7 µM | > 100 µM | > 100 µM | 61 µM | 3.58 µM | 16.9 µM
